pEC50, pIC50: −log10 of the molar value. Where two headings read alike, the source gives them in different places.
Legend:
[1] = biological target: T1, CD73 (Homo sapiens, UniProt P21589); assay: CD73 Biochemical IC50 Assay; conditions: final AMP 15 uM, final CD73 0.3 nM, 25 mM Tris pH 7.4, 5 mM MgCl2, no phosphate
T1 construct: purchased R&D system
T1 sequence (P21589 27-549): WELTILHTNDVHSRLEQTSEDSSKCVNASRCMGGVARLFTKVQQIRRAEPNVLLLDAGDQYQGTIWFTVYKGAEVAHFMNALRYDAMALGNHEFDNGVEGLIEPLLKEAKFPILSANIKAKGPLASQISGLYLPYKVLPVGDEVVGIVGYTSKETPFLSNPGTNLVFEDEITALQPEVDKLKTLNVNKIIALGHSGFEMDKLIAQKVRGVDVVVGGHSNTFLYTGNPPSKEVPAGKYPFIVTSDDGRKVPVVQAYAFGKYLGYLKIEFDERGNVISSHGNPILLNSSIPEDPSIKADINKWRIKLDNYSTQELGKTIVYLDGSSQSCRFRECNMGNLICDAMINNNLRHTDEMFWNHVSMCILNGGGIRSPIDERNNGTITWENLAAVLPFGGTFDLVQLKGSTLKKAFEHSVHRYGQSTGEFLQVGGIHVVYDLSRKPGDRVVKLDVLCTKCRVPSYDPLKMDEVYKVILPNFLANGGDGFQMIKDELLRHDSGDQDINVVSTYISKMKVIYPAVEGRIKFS
Method: CD73 Biochemical IC50 Assay
Compound serial dilutions were pre-spotted into Thermo Nunc assay plate. 50 μL CD73 enzyme buffer (CD73 purchased from R&D system=0.6 nM, 25 mM Tris, pH 7.4, 5 mM MgCl2) was added into the assay plate and incubated for 15 mins. […] The samples were run using Rapid fire.

[2] = biological target: T2, CD73 activity in MDA-MB-231-GFP cells (Homo sapiens, UniProt P21589); assay: MDA-MB-231 Cell Based CD73 Activity Assay; conditions: 10000 cells per well, RPMI medium with 10% human plasma, overnight compound treatment, AMP 200 μM
T2 construct: endogenous in cells; host or cells: MDA-MB-231-GFP cells
T2 sequence (P21589 27-549): T1 sequence (P21589 27-549)
Method: MDA-MB-231 Cell Based CD73 Activity Assay
MDA-MB-231-GFP cells were seeded in 384-well plates (Greiner 781946) at a density of 10000 cells per well in 50 μL of RPMI medium with 10% HP (human plasma). Cells were plated into assay plate with compounds pre-spotted, for an overnight compound treatment. 50 μL of 400 μM AMP (final concentration 200 μM) using a Bio-tek dispenser. Plates were incubated for 100 mins. […] The samples were run using Rapid fire.

[3] = biological target: T1, CD73; format: biochemical; conditions: 1 mM NaH2PO4 in enzyme buffer, final AMP 15 uM, final CD73 0.3 nM
[4] = biological target: T2, CD73 activity in MDA-MB-231-GFP cells; assay: MDA-MB-231 Cell Based CD73 Activity Assay (DMEM); conditions: 3000 cells per well, DMEM medium with 10% human plasma, overnight compound treatment, AMP 200 uM

| Structure (SMILES) | pIC50 [1] | pEC50 [2] | pIC50 [3] | pEC50 [4] |
| --- | --- | --- | --- | --- |
| O=c1[nH]cc(-c2cc([C@@H]3C[C@H]3c3ccc(F)cc3)c3nccn3n2)c(=O)[nH]1 (racemic) [Example 30, 5-(8-((1S,2S)-2-(4-fluorophenyl)cyclopropyl)imidazo[1,2-b]pyridazin-6-yl)pyrimidine-2,4(1H,3H)-dione and 5-(8-((1R,2R)-2-(4-fluorophenyl)cyclopropyl)imidazo[1,2-b]pyridazin-6-yl)pyrimidine-2,4(1H,3H)-dione] | 8.63 | 8.59 | 8.68 | 8.29 |
| O=c1[nH]cc(-c2cc([C@@H]3C[C@H]3c3ccc(F)cc3F)c3nccn3n2)c(=O)[nH]1 (racemic) [Example 31, 5-(8-((1S,2S)-2-(2,4-difluorophenyl)cyclopropyl)imidazo[1,2-b]pyridazin-6-yl)pyrimidine-2,4(1H,3H)-dione and 5-(8-((1R,2R)-2-(2,4-difluorophenyl)cyclopropyl)imidazo[1,2-b]pyridazin-6-yl)pyrimidine-2,4(1H,3H)-dione] | 8.26 | 8.42 | 9.03 | 8.32 |
| O=c1[nH]cc(-c2cc([C@@H]3C[C@H]3c3ccc(F)c(F)c3)c3nccn3n2)c(=O)[nH]1 (racemic) [Example 33, 5-(8-((1S,2S)-2-(3,4-difluorophenyl)cyclopropyl)imidazo[1,2-b]pyridazin-6-yl)pyrimidine-2,4(1H,3H)-dione and 5-(8-((1R,2R)-2-(3,4-difluorophenyl)cyclopropyl)imidazo[1,2-b]pyridazin-6-yl)pyrimidine-2,4(1H,3H)-dione] | 8.03 | 8.69 | 9.03 | 8.33 |
| O=c1[nH]cc(-c2cc([C@@H]3C[C@H]3c3cc(F)c(F)c(F)c3)c3nccn3n2)c(=O)[nH]1 (racemic) [Example 36, 5-(8-((1S,2S)-2-(3,4,5-trifluorophenyl)cyclopropyl)imidazo[1,2-b]pyridazin-6-yl)pyrimidine-2,4(1H,3H)-dione and 5-(8-((1R,2R)-2-(3,4,5-trifluorophenyl)cyclopropyl)imidazo[1,2-b]pyridazin-6-yl)pyrimidine-2,4(1H,3H)-dione] | 7.62 | 8.19 |  |  |
| O=c1[nH]cc(-c2cc([C@@H]3C[C@H]3c3cccc(Cl)c3)c3nccn3n2)c(=O)[nH]1 (racemic) [Example 38, 5-(8-((1S,2S)-2-(3-chlorophenyl)cyclopropyl)imidazo[1,2-b]pyridazin-6-yl)pyrimidine-2,4(1H,3H)-dione and 5-(8-((1R,2R)-2-(3-chlorophenyl)cyclopropyl)imidazo[1,2-b]pyridazin-6-yl)pyrimidine-2,4(1H,3H)-dione] | 7.84 | 8.14 |  |  |
| O=c1[nH]cc(-c2cc([C@H]3C[C@@H]3c3ccccc3)c3ncc(F)n3n2)c(=O)[nH]1 (racemic) [Example 87, 5-[3-fluoro-8-[(1S,2S)-2-phenylcyclopropyl]imidazo[1,2-b]pyridazin-6-yl]-1H-pyrimidine-2,4-dione and 5-[3-fluoro-8-[(1R,2R)-2-phenylcyclopropyl]imidazo[1,2-b]pyridazin-6-yl]-1H-pyrimidine-2,4-dione] | 7.80 | 8.49 |  |  |
| O=c1[nH]cc(-c2cc([C@H]3C[C@@H]3c3ccccc3)c3nccn3n2)c(=O)[nH]1 (racemic) [Example 104, 5-(8-((2S,2S)-2-phenylcyclopropyl)imidazo[1,2-b]pyridazin-6-yl)pyrimidine-2,4-(1H,3H)-dione and 5-(8-((1R,2R)-2-phenylcyclopropyl)imidazo[1,2-b]pyridazin-6-yl)pyrimidine-2,4-(1H,3H)-dione] | 6.71 | 7.64 |  |  |
| N#Cc1ccccc1[C@H]1C[C@@H]1c1cc(-c2c[nH]c(=O)[nH]c2=O)nn2ccnc12 [Example 49, 2-((1S,2S)-2-(6-(2,4-dioxo-1,2,3,4-tetrahydropyrimidin-5-yl)imidazo[1,2-b]pyridazin-8-yl)cyclopropyl)benzonitrile] | 7.76 | 7.72 |  |  |
| N#Cc1cccc([C@H]2C[C@@H]2c2cc(-c3c[nH]c(=O)[nH]c3=O)nn3ccnc23)c1 [Example 50, 3-((1S,2S)-2-(6-(2,4-dioxo-1,2,3,4-tetrahydropyrimidin-5-yl)imidazo[1,2-b]pyridazin-8-yl)cyclopropyl)benzonitrile] | 7.97 | 8.61 | 8.86 | 8.23 |

Other lines, results leading:

| pIC50 [1] | pEC50 [2] | pIC50 [3] | pEC50 [4] | Structure (SMILES) |
| --- | --- | --- | --- | --- |
| 7.69 | 8.65 |  |  | COc1ccc([C@H]2C[C@@H]2c2cc(-c3c[nH]c(=O)[nH]c3=O)nn3ccnc23)cc1 [Example 112, 5-(8-((1S,2S)-2-(4-methoxyphenyl)cyclopropyl)imidazo[1,2-b]pyridazin-6-yl)pyrimidine-2,4(1H,3H)-dione] |
| 6.83 | 6.68 |  |  | COC(=O)c1ccccc1[C@H]1C[C@@H]1c1cc(-c2c[nH]c(=O)[nH]c2=O)nn2ccnc12 [Example 113, methyl 2-((1S,2S)-2-(6-(2,4-dioxo-1,2,3,4-tetrahydropyrimidin-5-yl)imidazo[1,2-b]pyridazin-8-yl)cyclopropyl)benzoate] |
| 7.51 | 8.27 |  |  | COc1cccc([C@H]2C[C@@H]2c2cc(-c3c[nH]c(=O)[nH]c3=O)nn3ccnc23)c1 [Example 114, 5-(8-((1S,2S)-2-(3-methoxyphenyl)cyclopropyl)imidazo[1,2-b]pyridazin-6-yl)pyrimidine-2,4(1H,3H)-dione] |
| < 5.60 | 6.14 |  |  | O=c1[nH]cc(-c2cc(N3CCC[C@H]3c3ccc(F)cc3)c3nccn3n2)c(=O)[nH]1 [Example 116, (S)-5-(8-(2-(4-fluorophenyl)pyrrolidin-1-yl)imidazo[1,2-b]pyridazin-6-yl)pyrimidine-2,4(1H,3H)-dione] |
